Test [1] deals with P. falciparum topoisomerase I (pfTopoI). Nature of the test: Plasmid (pBR322) DNA relaxation by pfTopoI. Type of test: biochemical, Plasmodium falciparum. The following applies: peptide 1.3 to 50 μM; even at concentrations up to 50 μM; 30 min, 37°C.
For a further test, the system named is DNA. The test is described as follows: Unspecific DNA binding. To be noted: confirmed in the present study, data not shown.
Test [2] deals with type IB Topo of Vaccinia virus (vvTopoI). To be noted: cited from earlier work; for step of catalysis inhibited (vvTopoI): DNA relaxation by vvTopoI; for step of catalysis inhibited (vvTopoI) / inhibition of vvTopoI relaxation activity: ref [39], [40]; for activity against vvTopoI: from rescreening of peptide combinatorial library against vvTopoI, ref [40].
The subject of a further test is bacteriophage λ-Int. The following applies: ref [39], [40]; cited from earlier work.

Bridges are numbered along the chain shown (N, C = ends). Where no end group is shown, it is not given here.

Here are results for two substances from publication PMC3200115, “Peptide Inhibition of Topoisomerase IB from Plasmodium falciparum” (Molecular Biology International, 2011).

Turning to “KCCRCK (disulfide (positions not given here)) [synthetic hexapeptide purchased from GenScript]”, the “effect on relaxation activity of pfTopoI” value in test [1] was “no effect”. Further, in the test on DNA, the DNA binding capacity result is recorded as “unspecific DNA binding capacity”. Further, in test [2], the “step of catalysis inhibited (vvTopoI)” value is “specific inhibition of the cleavage and not the ligation step of catalysis”; the “activity against vvTopoI” value is “high activity”; the “inhibition of vvTopoI relaxation activity” value is “inhibited the relaxation activity of vvTopoI”. Besides, the “step of catalysis inhibited (λ-Int)” value in the test with bacteriophage λ-Int was “specific inhibition of the cleavage and not the ligation step of catalysis”.
With “WYCRCK (disulfide 3-5 (inferred)) [synthetic hexapeptide purchased from GenScript]”, the “effect on relaxation activity of pfTopoI” value in test [1] was “no effect”. In the test on DNA, the DNA binding capacity entry is “unspecific DNA binding capacity”. Further, in test [2], the “step of catalysis inhibited (vvTopoI)” value was “specific inhibition of the cleavage and not the ligation step of catalysis”; the “activity against vvTopoI” value was “high activity”; the “inhibition of vvTopoI relaxation activity” value is “inhibited the relaxation activity of vvTopoI”. Further, in the test with bacteriophage λ-Int, the “step of catalysis inhibited (λ-Int)” value is “specific inhibition of the cleavage and not the ligation step of catalysis”.
